The values that follow come from patent US10130633B2, “Compounds” (BAYER PHARMA AKTIENGESELLSCHAFT, priority 2013, dated 2018).

Structures are written as SMILES. Where a name gives a salt, the structure may show the parent alone.

The subject of assay [1] is constitutive active colorectal cancer cell (CRC) Wnt pathway. Description: HCT116 TOPFlash cellular reporter assay (Super TopFlash luciferase), constitutive active Wnt pathway. It counts as cell-based. The settings on record: Homo sapiens, HCT-116, 36 h, HCT116 TOP reporter cells, 36 hours incubation, luciferase expression. As for the experimental part: In order to discover and characterize small molecules which inhibit the constitutive active colorectal cancer cell (CRC) Wnt pathway, a cellular reporter assay was employed. […] Stable transfectants were generated by cotransfection with pcDNA3 and selection of stable transfected cells with 1 mg/ml G418.

Assay [2] relates to HCT116 FOP control reporter cell line. Put plainly: HCT116 FOPFlash control reporter assay (FOP control vector, non-functional TCF elements). Format: cell-based. The settings on record: Homo sapiens, HCT-116, 36 h, HCT116 FOP control reporter cells, 36 hours incubation, luciferase expression. From the text:
In a parallel approach, HCT116 cells were cotransfected with the FOP control vector and pcDNA3. The FOP vector is identical to the TOP construct, but it contains instead of functional TCF elements a randomized, non-functional sequence. For this transfection a stable transfected cell line was generated as well.

As to `CC(C(=O)Nc1cc(C(=O)Nc2nnc(-c3ccccc3)s2)ccc1C(F)(F)F)N1CCOCC1` (stereo not drawn) [Example 128, 3-{[2-(morpholin-4-yl)propanoyl]amino}-N-(5-phenyl-1,3,4-thiadiazol-2-yl)-4-(trifluoromethyl)benzamide], the IC50 was 710 nM in assay [1] and not below 50000 nM in assay [2].
`CC(C(=O)Nc1cc(C(=O)Nc2nnc(-c3ccccc3)s2)ccc1C(F)(F)F)N1CCN(C)CC1` (stereo not drawn) [Example 129, 3-{[2-(4-methylpiperazin-1-yl)propanoyl]amino}-N-(5-phenyl-1,3,4-thiadiazol-2-yl)-4-(trifluoromethyl)benzamide]: the results for the IC50 in assay [1] and in assay [2] were 900 nM and not below 50000 nM, respectively.
Regarding `COc1ccc(NC(=O)c2nnc(-c3ccccc3)s2)cc1NC(=O)CN1CCOCC1` [Example 130, N-{4-methoxy-3-[(morpholin-4-ylacetyl)amino]phenyl}-5-phenyl-1,3,4-thiadiazole-2-carboxamide], the values for the IC50 in assay [1] and in assay [2] were 318 nM and not below 50000 nM, respectively.
The like results for `CN1CCN(C2(C(=O)Nc3cc(C(=O)Nc4ccc(-c5ccccc5F)nc4)ccc3OC3CC3)CC2)CC1` [Example 135, 4-(cyclopropyloxy)-N-[6-(2-fluorophenyl)pyridin-3-yl]-3-({[1-(4-methylpiperazin-1-yl)cyclopropyl]carbonyl}amino)benzamide] were, in that order, 84.8 nM and not below 50000 nM.
The like results for `CC1CN(CC(=O)Nc2cc(C(=O)Nc3ccc(-c4ccccc4F)nc3)ccc2OC(F)(F)F)CCN1C` (stereo not drawn) [Example 137, 3-{[(3,4-dimethylpiperazin-1-yl)acetyl]amino}-N-[6-(2-fluorophenyl)pyridin-3-yl]-4-(trifluoromethoxy)benzamide] were, in that order, 272 nM and 20000 nM.
Consider `CSc1ccc(C(=O)Nc2ccc(-c3ccccc3F)nc2)cc1NC(=O)CN1CCOCC1` [Example 138, N-[6-(2-fluorophenyl)pyridin-3-yl]-4-(methylsulfanyl)-3-[(morpholin-4-ylacetyl)amino]benzamide], for which the IC50 in assay [1] is 150 nM; in assay [2], not below 50000 nM.
The corresponding values for `CS(=O)(=O)c1ccc(C(=O)Nc2ccc(-c3ccccc3F)nc2)cc1NC(=O)CN1CCOCC1` [Example 139, N-[6-(2-fluorophenyl)pyridin-3-yl]-4-(methylsulfonyl)-3-[(morpholin-4-ylacetyl)amino]benzamide] are 500 nM and 25000 nM.
Turning to `CN(C)C1(C(=O)Nc2cc(C(=O)Nc3ccc(-c4ccccc4F)nc3)ccc2OC2CC2)CC1` [Example 140, 4-(cyclopropyloxy)-3-({[1-(dimethylamino)cyclopropyl]carbonyl}amino)-N-[6-(2-fluorophenyl)pyridin-3-yl]benzamide], the IC50 in assay [1] worked out at 293 nM; in assay [2] it was 10000 nM.
The corresponding values for `O=C(Cn1cccn1)Nc1cc(C(=O)Nc2ccc(-c3ccccc3F)nc2)ccc1OC1CC1` [Example 141, 4-(cyclopropyloxy)-N-[6-(2-fluorophenyl)pyridin-3-yl]-3-[(1H-pyrazol-1-ylacetyl)amino]benzamide] are 680 nM and not below 50000 nM.
In the case of `CC(C(=O)Nc1cc(C(=O)Nc2ccc(-c3ccccc3F)nc2)ccc1C(C)(C)C)N1CCOCC1` (stereo not drawn) [Example 142, 4-tert-butyl-N-[6-(2-fluorophenyl)pyridin-3-yl]-3-{[2-(morpholin-4-yl)propanoyl]amino}benzamide], the IC50 in assay [1] is 118 nM; in assay [2], 7150 nM.
The like results for `CC(C(=O)Nc1cc(C(=O)Nc2ncc(-c3ccccc3)s2)ccc1C(C)(C)C)N1CCOCC1` (stereo not drawn) [Example 143, 4-tert-butyl-3-{[2-(morpholin-4-yl)propanoyl]amino}-N-(5-phenyl-1,3-thiazol-2-yl)benzamide] were, in that order, 204 nM and not below 50000 nM.
For the compound `Cc1ccccc1-c1nnc(NC(=O)c2ccc(OC(F)(F)F)c(NC(=O)CN3CCN(C)CC3)c2)s1` [Example 144, N-[5-(2-methylphenyl)-1,3,4-thiadiazol-2-yl]-3-{[(4-methylpiperazin-1-yl)acetyl]amino}-4-(trifluoromethoxy)benzamide], the values for the IC50 in assay [1] and in assay [2] were 195 nM and not below 50000 nM, respectively.
The corresponding values for `Cc1cccc(-c2nnc(NC(=O)c3ccc(OC(F)(F)F)c(NC(=O)CN4CCN(C)CC4)c3)s2)c1` [Example 145, N-[5-(3-methylphenyl)-1,3,4-thiadiazol-2-yl]-3-{[(4-methylpiperazin-1-yl)acetyl]amino}-4-(trifluoromethoxy)benzamide] are 152 nM and not below 50000 nM.
Turning to `COc1cccc(-c2nnc(NC(=O)c3ccc(OC(F)(F)F)c(NC(=O)CN4CCN(C)CC4)c3)s2)c1` [Example 146, N-[5-(3-methoxyphenyl)-1,3,4-thiadiazol-2-yl]-3-{[(4-methylpiperazin-1-yl)acetyl]amino}-4-(trifluoromethoxy)benzamide], the IC50 in assay [1] was 365 nM; in assay [2] it was not below 50000 nM.
With `CN1CCN(CC(=O)Nc2cc(C(=O)Nc3nnc(-c4ccc(Cl)cc4)s3)ccc2OC(F)(F)F)CC1` [Example 147, N-[5-(4-chlorophenyl)-1,3,4-thiadiazol-2-yl]-3-{[(4-methylpiperazin-1-yl)acetyl]amino}-4-(trifluoromethoxy)benzamide], the IC50 was 2200 nM in assay [1] and not below 50000 nM in assay [2].
For the compound `CN1CCN(CC(=O)Nc2cc(C(=O)Nc3nnc(-c4ccccc4Cl)s3)ccc2OC(F)(F)F)CC1` [Example 148, N-[5-(2-chlorophenyl)-1,3,4-thiadiazol-2-yl]-3-{[(4-methylpiperazin-1-yl)acetyl]amino}-4-(trifluoromethoxy)benzamide], the concentration for half-maximal inhibition (IC50) in assay [1] was determined as 205 nM; in assay [2] it was 36500 nM.
The corresponding values for `CN1CCN(CC(=O)Nc2cc(C(=O)Nc3nnc(-c4ccc(F)cc4)s3)ccc2OC(F)(F)F)CC1` [Example 149, N-[5-(4-fluorophenyl)-1,3,4-thiadiazol-2-yl]-3-{[(4-methylpiperazin-1-yl)acetyl]amino}-4-(trifluoromethoxy)benzamide] are 704 nM and 47500 nM.
With `CN1CCN(CC(=O)Nc2cc(C(=O)Nc3nnc(-c4ccccc4F)s3)ccc2OC(F)(F)F)CC1` [Example 150, N-[5-(2-fluorophenyl)-1,3,4-thiadiazol-2-yl]-3-{[(4-methylpiperazin-1-yl)acetyl]amino}-4-(trifluoromethoxy)benzamide], the values for the IC50 in assay [1] and in assay [2] were 76 nM and not below 50000 nM, respectively.
The like results for `CN1CCN(CC(=O)Nc2cc(C(=O)Nc3nnc(-c4cccc(F)c4)s3)ccc2OC(F)(F)F)CC1` [Example 152, N-[5-(3-fluorophenyl)-1,3,4-thiadiazol-2-yl]-3-{[(4-methylpiperazin-1-yl)acetyl]amino}-4-(trifluoromethoxy)benzamide] were, in that order, 200 nM and not below 50000 nM.
The like results for `O=C(CN1CCOCC1)Nc1cc(C(=O)Nc2nnc(-c3cccc(F)c3)s2)ccc1OC(F)(F)F` [Example 153, N-[5-(3-fluorophenyl)-1,3,4-thiadiazol-2-yl]-3-[(morpholin-4-ylacetyl)amino]-4-(trifluoromethoxy)benzamide] were, in that order, 132 nM and 30000 nM.
The like results for `O=C(CN1CCOCC1)Nc1cc(C(=O)Nc2nnc(-c3cccc(Cl)c3)s2)ccc1OC(F)(F)F` [Example 154, N-[5-(3-chlorophenyl)-1,3,4-thiadiazol-2-yl]-3-[(morpholin-4-ylacetyl)amino]-4-(trifluoromethoxy)benzamide] were, in that order, 420 nM and not below 50000 nM.
As for `COCCNC(=O)c1ccc(C(=O)Nc2nnc(-c3ccccc3)s2)cc1NC(=O)CN1CCN(C)CC1` [Example 155, N^1-(2-methoxyethyl)-2-{[(4-methylpiperazin-1-yl)acetyl]amino}-N^4-(5-phenyl-1,3,4-thiadiazol-2-yl)terephthalamide], the values for the IC50 in assay [1] and in assay [2] were 592 nM and 32500 nM, respectively.
With `COCCNC(=O)c1ccc(C(=O)Nc2nnc(-c3ccccc3)s2)cc1NC(=O)CN1CCOCC1` [Example 156, N^1-(2-methoxyethyl)-2-[(morpholin-4-ylacetyl)amino]-N^4-(5-phenyl-1,3,4-thiadiazol-2-yl)terephthalamide], the IC50 is 542 nM in assay [1] and not below 50000 nM in assay [2].
The like results for `Cc1ccc(C(=O)Nc2nnc(-c3ccccc3)s2)cc1NC(=O)C1(N2CCN(C)CC2)CC1` [Example 157, 4-methyl-3-({[1-(4-methylpiperazin-1-yl)cyclopropyl]carbonyl}amino)-N-(5-phenyl-1,3,4-thiadiazol-2-yl)benzamide hydrochloride (1:1)] were, in that order, 96.6 nM and not below 50000 nM.
The corresponding values for `CN1CCN(CC(=O)Nc2cc(C(=O)Nc3ccc(-c4ccccc4)cn3)ccc2OC(F)(F)F)CC1` [Example 158, 3-{[(4-methylpiperazin-1-yl)acetyl]amino}-N-(5-phenylpyridin-2-yl)-4-(trifluoromethoxy)benzamide] are 73.6 nM and 21800 nM.
The like results for `CC1CN(CC(=O)Nc2cc(C(=O)Nc3nnc(-c4ccccc4)s3)ccc2OC(F)(F)F)CCN1C` (stereo not drawn) [Example 160, 3-{[(3,4-dimethylpiperazin-1-yl)acetyl]amino}-N-(5-phenyl-1,3,4-thiadiazol-2-yl)-4-(trifluoromethoxy)benzamide] were, in that order, 948 nM and 28000 nM.
With `C[C@@H]1CN(C)CCN1CC(=O)Nc1cc(C(=O)Nc2ccc(-c3ccccc3F)nc2)ccc1OC(F)(F)F` [Example 161, 3-({[(2R)-2,4-dimethylpiperazin-1-yl]acetyl}amino)-N-[6-(2-fluorophenyl)pyridin-3-yl]-4-(trifluoromethoxy)benzamide], the results for the IC50 in assay [1] and in assay [2] were 325 nM and 10000 nM, respectively.
